Assay results from ChEMBL document CHEMBL3734705, “Synthesis and in vitro cytotoxicity of novel C-12 substituted-14-deoxy-andrographolide derivatives as potent anti-cancer agents” (2015).
Activity calls are given as the source filed them. The calls are words filed in the database; no cut-off is given here.

Columns and labels:
KM12 = test: Cytotoxicity against human KM12 cells assessed as growth inhibition at 10 uM after 48 hrs by SRB assay; format: functional; conditions: KM12, 48 h, read-out: GI
[1] = Cytotoxicity against human Caki1 cells assessed as growth inhibition at 10 uM after 48 hrs by SRB assay; format: functional; conditions: CAKI-1, 48 h, read-out: GI
[2] = Cytotoxicity against human SW620 cells assessed as growth inhibition at 10 uM after 48 hrs by SRB assay; format: functional; conditions: SW-620, 48 h, read-out: GI
[3] = Cytotoxicity against human SF295 cells assessed as growth inhibition at 10 uM after 48 hrs by SRB assay; format: functional; conditions: SF-295, 48 h, read-out: GI
ACHN = test: Cytotoxicity against human ACHN cells assessed as growth level at 10 uM after 48 hrs by SRB assay; format: functional
SK-MEL-5 = test: Cytotoxicity against human SK-MEL-5 cells assessed as growth inhibition at 10 uM after 48 hrs by SRB assay; format: functional; conditions: SK-MEL-5, 48 h, read-out: GI
[4] = Cytotoxicity against human OVCAR4 cells assessed as growth inhibition at 10 uM after 48 hrs by SRB assay; format: functional; conditions: OVCAR-4, 48 h, read-out: GI
MDA-MB-435 [5] = test: Cytotoxicity against human MDA-MB-435 cells assessed as growth inhibition at 10 uM after 48 hrs by SRB assay; format: functional; conditions: MDA-MB-435, 48 h, read-out: GI
K562 = test: Cytotoxicity against human K562 cells assessed as growth inhibition at 10 uM after 48 hrs by SRB assay; format: functional; conditions: K562, 48 h, read-out: GI
[6] = Cytotoxicity against human DU145 cells assessed as growth level at 10 uM after 48 hrs by SRB assay; format: functional, DU-145
[7] = Cytotoxicity against human HCT116 cells assessed as growth level at 10 uM after 48 hrs by SRB assay; format: functional, HCT-116
786-0 [8] = test: Cytotoxicity against human 786-0 cells assessed as growth inhibition at 10 uM after 48 hrs by SRB assay; format: functional; conditions: 786-0, 48 h, read-out: GI
[9] = Cytotoxicity against human HCC2998 cells assessed as growth inhibition at 10 uM after 48 hrs by SRB assay; format: functional; conditions: HCC 2998, 48 h, read-out: GI
NCI-H522 = test: Cytotoxicity against human NCI-H522 cells assessed as growth level at 10 uM after 48 hrs by SRB assay; format: functional
[10] = Cytotoxicity against human OVCAR3 cells assessed as growth level at 10 uM after 48 hrs by SRB assay; format: functional, OVCAR-3
[11] = Cytotoxicity against human OVCAR3 cells assessed as growth inhibition at 10 uM after 48 hrs by SRB assay; format: functional; conditions: OVCAR-3, 48 h, read-out: GI
[12] = Cytotoxicity against human COLO205 cells assessed as growth level at 10 uM after 48 hrs by SRB assay; format: functional, COLO 205
U-251 [13] = test: Cytotoxicity against human U251 cells assessed as growth level at 10 uM after 48 hrs by SRB assay; format: functional
M14 = test: Cytotoxicity against human M14 cells assessed as growth level at 10 uM after 48 hrs by SRB assay; format: functional
[14] = Cytotoxicity against human SF295 cells assessed as growth level at 10 uM after 48 hrs by SRB assay; format: functional, SF-295
[15] = Cytotoxicity against human COLO205 cells assessed as growth inhibition at 10 uM after 48 hrs by SRB assay; format: functional; conditions: COLO 205, 48 h, read-out: GI
[16] = Cytotoxicity against human HOP92 cells assessed as growth level at 10 uM after 48 hrs by SRB assay; format: functional, HOP-92
[17] = Cytotoxicity against human HCC2998 cells assessed as growth level at 10 uM after 48 hrs by SRB assay; format: functional, HCC 2998
MDA-MB-435 [18] = test: Cytotoxicity against human MDA-MB-435 cells assessed as growth level at 10 uM after 48 hrs by SRB assay; format: functional
[19] = Cytotoxicity against human SNB75 cells assessed as growth level at 10 uM after 48 hrs by SRB assay; format: functional, SNB-75
[20] = Cytotoxicity against human LOXIMVI cells assessed as growth level at 10 uM after 48 hrs by SRB assay; format: functional, LOX IMVI
786-0 [21] = test: Cytotoxicity against human 786-0 cells assessed as growth level at 10 uM after 48 hrs by SRB assay; format: functional
[22] = Cytotoxicity against human SNB19 cells assessed as growth inhibition at 10 uM after 48 hrs by SRB assay; format: functional; conditions: SNB-19, 48 h, read-out: GI
NCI-H23 = test: Cytotoxicity against human NCI-H23 cells assessed as growth level at 10 uM after 48 hrs by SRB assay; format: functional
U-251 [23] = test: Cytotoxicity against human U251 cells assessed as growth inhibition at 10 uM after 48 hrs by SRB assay; format: functional; conditions: U-251, 48 h, read-out: GI
[24] = Cytotoxicity against human DU145 cells assessed as growth inhibition at 10 uM after 48 hrs by SRB assay; format: functional; conditions: DU-145, 48 h, read-out: GI
A549 = test: Cytotoxicity against human A549 cells assessed as growth inhibition at 10 uM after 48 hrs by SRB assay; format: functional; conditions: A549, 48 h, read-out: GI
[25] = Cytotoxicity against human SF268 cells assessed as growth inhibition at 10 uM after 48 hrs by SRB assay; format: functional; conditions: SF-268, 48 h, read-out: GI
SK-MEL-28 = test: Cytotoxicity against human SK-MEL-28 cells assessed as growth inhibition at 10 uM after 48 hrs by SRB assay; format: functional; conditions: SK-MEL-28, 48 h, read-out: GI
HT-29 = test: Cytotoxicity against human HT-29 cells assessed as growth level at 10 uM after 48 hrs by SRB assay; format: functional
EKVX = test: Cytotoxicity against human EKVX cells assessed as growth inhibition at 10 uM after 48 hrs by SRB assay; format: functional
[26] = Cytotoxicity against human Hs578T cells assessed as growth level at 10 uM after 48 hrs by SRB assay; format: functional, Hs-578T
[27] = Cytotoxicity against human OVCAR4 cells assessed as growth level at 10 uM after 48 hrs by SRB assay; format: functional, OVCAR-4
MCF7 = test: Cytotoxicity against human MCF7 cells assessed as growth inhibition at 10 uM after 48 hrs by SRB assay; format: functional; conditions: MCF7, 48 h, read-out: GI
[28] = Cytotoxicity against human Caki1 cells assessed as growth level at 10 uM after 48 hrs by SRB assay; format: functional, CAKI-1
[29] = Cytotoxicity against human IGROV1 cells assessed as growth level at 10 uM after 48 hrs by SRB assay; format: functional, IGROV-1
SR = test: Cytotoxicity against human SR cells assessed as growth level at 10 uM after 48 hrs by SRB assay; format: functional
[30] = Cytotoxicity against human PC3 cells assessed as growth level at 10 uM after 48 hrs by SRB assay; format: functional, PC-3

## C=C1CC[C@@H]2[C@](C)(COC(C)=O)[C@H](OC(C)=O)CC[C@@]2(C)[C@@H]1C/C=C1/C(=O)OC[C@H]1OC(C)=O
KM12
  inhibition of growth at 10 µM: 47.2%
[1]
  inhibition of growth at 10 µM: 18.5%
[2]
  inhibition of growth at 10 µM: 21.9%
[3]
  inhibition of growth at 10 µM: 4.98%
ACHN
  Activity: 19.55%
SK-MEL-5
  inhibition of growth at 10 µM: 43.8%
[4]
  inhibition of growth at 10 µM: 33.5%
MDA-MB-435 [5]
  inhibition of growth at 10 µM: 66.9%
K562
  inhibition of growth at 10 µM: 88.9%
[6]
  Activity: 50.88%
[7]
  Activity: -37.34%
786-0 [8]
  inhibition of growth at 10 µM: 10.9%
[9]
  inhibition of growth at 10 µM: 32.7%
NCI-H522
  Activity: -41.64%
[10]
  Activity: -21.32%
[11]
  inhibition of growth at 10 µM: 21.3%
[12]
  Activity: 22.03%
U-251 [13]
  Activity: 54.02%
M14
  Activity: 35.37%
[14]
  Activity: 95.02%
[15]
  inhibition of growth at 10 µM: 78%
[16]
  Activity: 71.9%
[17]
  Activity: 67.32%
MDA-MB-435 [18]
  Activity: 33.07%
[19]
  Activity: 44.87%
[20]
  Activity: -74.4%
786-0 [21]
  Activity: -10.88%
[22]
  inhibition of growth at 10 µM: 17%
NCI-H23
  Activity: 80.92%
U-251 [23]
  inhibition of growth at 10 µM: 46%
[24]
  inhibition of growth at 10 µM: 49.1%
A549
  inhibition of growth at 10 µM: 14.2%
[25]
  inhibition of growth at 10 µM: 12.9%
SK-MEL-28
  inhibition of growth at 10 µM: 62.2%
HT-29
  Activity: -39.4%
EKVX
  growth inhibition (GI): inactive
[26]
  Activity: 100.18%
[27]
  Activity: 66.49%
MCF7
  inhibition of growth at 10 µM: 77.1%
[28]
  Activity: 81.51%
[29]
  Activity: 102.65%
SR
  Activity: 5.73%
[30]
  Activity: 88.46%

## C=C1CC[C@@H]2[C@](C)(COC(C)=O)[C@H](OC(C)=O)CC[C@@]2(C)[C@@H]1CC(Nc1ccc(S(=O)(=O)NC(C)=O)cc1)C1=CCOC1=O (mixture of isomers)
ACHN
  Activity: -63.23%
[6]
  Activity: 0.37%
[7]
  Activity: -63.92%
NCI-H522
  Activity: -63.21%
[10]
  Activity: -87.71%
[12]
  Activity: -32.73%
U-251 [13]
  Activity: -65.49%
M14
  Activity: -35.08%
[14]
  Activity: 58.44%
[16]
  Activity: 20.95%
[17]
  Activity: -12.74%
MDA-MB-435 [18]
  Activity: -38.84%
[19]
  Activity: 26.28%
[20]
  Activity: -85.84%
786-0 [21]
  Activity: -66.04%
NCI-H23
  Activity: 7.36%
HT-29
  Activity: -69.92%
[26]
  Activity: 32.45%
[27]
  Activity: 26.08%
[28]
  Activity: 30.25%
[29]
  Activity: -10.04%
SR
  Activity: 2.08%
[30]
  Activity: 0.69%
